This test deals with Bovine cardiac myofibrils. Description: In vitro model of dose-dependent myofibril ATPase modulation (AC1.4, pyruvate kinase/lactate dehydrogenase-coupled ATPase assay at pCa25). Format: biochemical. Conditions: concentration at which ATPase activity was 1.4-fold higher than the bottom of the dose curve, mean of a minimum of two independent tests. The gist of the method: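 Compound dilutions were premixed with myofibrils, coupling enzymes, EGTA and CaCl2, then the reaction was started with an equal volume carrying ATP (final 1 mM), NADH and PEP. ATP turnover was followed at 340 nm, and dose responses were fit to a four-parameter equation.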
Compound `Cc1c(CNC(=O)[C@H]2CCCN2C(=O)[C@H]2CCCN(S(=O)(=O)N3CC(C#N)C3)C2)cccc1C(F)(F)F` [Example 145, 1-(((3S)-1-((3-cyano-1-azetidinyl)sulfonyl)-3-piperidinyl)carbonyl)-N-(2-methyl-3-(trifluoromethyl)benzyl)-D-prolinamide] returned an AC1.4 of 0.2465 µM.

On to `CN1CC(C(NC(=O)[C@H]2C[C@H]3C[C@H]3N2C(=O)c2cccc(S(C)(=O)=O)c2)c2ccc(C(F)(F)F)cc2F)CC1=O` (stereo partly drawn) [Example 575, (1R,3R,5R)-N-((2-fluoro-4-(trifluoromethyl)phenyl)(1-methyl-5-oxopyrrolidin-3-yl)methyl)-2-(3-(methylsulfonyl)benzoyl)-2-azabicyclo[3.1.0]hexane-3-carboxamrde], for which the AC1.4 came out at 3.245 µM.

Compound `O=C(NCc1ccc(C(F)(F)F)cc1)[C@H]1CCCN1C(=O)[C@H]1CCCN(S(=O)(=O)N2CC(F)(F)C2)C1` [Example 703, 1-(((3S)-1-((3,3-difluoro-1-azetidinyl)sulfonyl)-3-piperidinyl)carbonyl)-N-(4-(trifluoromethyl)benzyl)-D-prolinamide] registered an AC1.4 of 5.723 µM.

The compound `N#CC1CN(S(=O)(=O)N2CCC[C@H](C(=O)N3CCC[C@@H]3C(=O)N[C@@H](c3ccc(C(F)(F)F)cc3)C(F)(F)F)C2)C1` [Example 198, 1-(((3S)-1-((3-cyano-1-azetidinyl)sulfonyl)-3-piperidinyl)carbonyl)-N-((1S)-2,2,2-trifluoro-1-(4-(trifluoromethyl)phenyl)ethyl)-D-prolinamide] had an AC1.4 of 0.4034 µM.

Take `CS(=O)(=O)c1cc(F)cc(C(=O)N2[C@@H](C(=O)N[C@@H](c3cc(F)c(Cl)cc3F)C3COC3)C[C@H]3C[C@H]32)c1` [Example 83, (1R,3R,5R)-N-((R)-(4-chloro-2,5-difluorophenyl)(3-oxetanyl)methyl)-2-(3-fluoro-5-(methylsulfonyl)benzoyl)-2-azabicyclo[3.1.0]hexane-3-carboxamide]: the AC1.4 amounted to 0.1146 µM.

`C[C@@H](NC(=O)[C@H]1CC(F)(F)CN1C(=O)c1cccc(S(=O)(=O)N2CC(C#N)C2)c1)c1ccc(C(F)(F)F)cc1` [Example 6, 1-((3-((3-cyano-1-azetidinyl)sulfonyl)phenyl)carbonyl)-4,4-difluoro-N-((1R)-1-(4-(trifluoromethyl)phenyl)ethyl)-D-prolinamide] registered an AC1.4 of 0.0171 µM.

`CC1(O)CN(S(=O)(=O)N2CCC[C@H](C(=O)N3CCC[C@@H]3C(=O)NCc3ccc(C(F)(F)F)cc3)C2)C1` [Example 730, 1 (((3S)-1-((3-hydroxy-3-methyl-1-azetidinyl)sulfonyl)-3-piperidinyl)carbonyl)-N-(4-(trifluoromethyl)benzyl)-D-prolinamide] displayed an AC1.4 of 6.7333 µM.

In turn, `CON(C)S(=O)(=O)c1cccc(C(=O)N2CCC[C@@H]2C(=O)NCc2ccc(C(F)(F)F)cc2)c1` [Example 649, 1-(3-(methoxy(methyl)sulfamoyl)benzoyl)-N-(4-(trifluoromethyl)benzyl)-D-prolinamide] had an AC1.4 of 4.4365 µM.

Take `CC(C)N(C)S(=O)(=O)c1cccc(C(=O)N2CCC[C@@H]2C(=O)NCc2ccc(C(F)(F)F)cc2)c1` [Example 315, 1-(3-(methyl(2-propanyl)sulfamoyl)benzoyl)-N-(4-(trifluoromethyl)benzyl)-D-prolinamide]: the AC1.4 was found to be 0.8574 µM.

Turning to `N#CC1CN(S(=O)(=O)N2CCC[C@H](C(=O)N3CCC[C@@H]3C(=O)NC(c3ccc(Cl)cc3)C3CCCO3)C2)C1` (stereo partly drawn) [Example 132, N-(-(4-chlorophenyl)(-tetrahydro-2-furanyl)methyl)-1-(((3S)-1-((3-cyano-1-azetidinyl)sulfonyl)-3-piperidinyl)carbonyl)-D-prolinamide], the AC1.4 came to 0.2176 µM.

Turning to `N#CC1CN(S(=O)(=O)N2CCC[C@H](C(=O)N3CCC[C@@H]3C(=O)NCc3ccccc3C(F)(F)F)C2)C1` [Example 746, 1-(((3S)-1-((3-cyano-1-azetidinyl)sulfonyl)-3-piperidinyl)carbonyl)-N-(2-(trifluoromethyl)benzyl)-D-prolinamide], the AC1.4 is 7.268 µM.

`CC(O)C(NC(=O)[C@H]1C[C@H]2C[C@H]2N1C(=O)c1cccc(S(C)(=O)=O)c1)c1ccc(C(F)(F)F)cc1F` (stereo partly drawn) [Example 601, (1R,3R,5R)-N-(1-(2-fluoro-4-(trifluoromethyl)phenyl)-2-hydroxypropyl)-2-(3-(methylsulfonyl)benzoyl)-2-azabicyclo[3.1.0]hexane-3-carboxamide] yielded an AC1.4 of 3.276 µM.

The compound `O=C(N[C@@H](c1cc(F)c(Cl)cc1F)C1COC1)[C@H]1C[C@H]2C[C@H]2N1C(=O)c1cc(C(F)(F)F)ccn1` [Example 233, (1R,3R,5R)-N-((R)-(4-chloro-2,5-difluorophenyl)(3-oxetanyl)methyl)-2-((4-(trifluoromethyl)-2-pyridinyl)carbonyl)-2-azabicyclo[3.1.0]hexane-3-carboxamide] came in with an AC1.4 of 0.5241 µM.

`O=C(NCc1ccc(C(F)(F)F)cc1F)[C@H]1CCCN1C(=O)[C@H]1CCCN(S(=O)(=O)N2CC(O)(C3CC3)C2)C1` [Example 199, 1-(((3S)-1-((3-cyclopropyl-3-hydroxy-1-azetidinyl)sulfonyl)-3-piperidinyl)carbonyl)-N-(2-fluoro-4-(trifluoromethyl)benzyl)-D-prolinamide]: the AC1.4 was 0.4078 µM.

As to `N#CC1CN(S(=O)(=O)N2CCC[C@H](C(=O)N3CCC[C@@H]3C(=O)NCc3ccc(C(F)(F)F)c(F)c3)C2)C1` [Example 32, 1-(((3S)-1-((3-cyano-1-azetidinyl)sulfonyl)-3-piperidinyl)carbonyl)-N-(3-fluoro-4-(trifluoromethyl)benzyl)-D-prolinamide], the AC1.4 stood at 0.0335 µM.

Regarding `N#CC1CN(S(=O)(=O)N2CCC[C@H](C(=O)N3CCC[C@@H]3C(=O)NCc3ccc(F)c(C(F)(F)F)c3)C2)C1` [Example 297, 1-(((3S)-1-((3-cyano-1-azetidinyl)sulfonyl)-3-piperidinyl)carbonyl)-N-(4-fluoro-3-(trifluoromethyl)benzyl)-D-prolinamide], the AC1.4 worked out at 0.7685 µM.

The compound `COc1ccc(CNC(=O)[C@H]2CCCN2C(=O)[C@H]2CCCN(S(=O)(=O)N3CC(C#N)C3)C2)c(F)c1` [Example 557, 1-(((3S)-1-((3-cyano-1-azetidinyl)sulfonyl)-3-piperidinyl)carbonyl)-N-(2-fluoro-4-methoxybenzyl)-D-prolinamide] displayed an AC1.4 of 2.9265 µM.

With `Cc1cc(Cl)ccc1CNC(=O)[C@H]1CCCN1C(=O)[C@H]1CCCN(S(=O)(=O)N2CC(C#N)C2)C1` [Example 119, N-(4-chloro-2-methylbenzyl)-1-(((3S)-1-((3-cyano-1-azetidinyl)sulfonyl)-3-piperidinyl)carbonyl)-D-prolinamide], the AC1.4 turned out to be 0.1819 µM.

`CS(=O)(=O)c1cccc(C(=O)N2C[C@H](O)C[C@@H]2C(=O)N[C@@H](c2ccc(C(F)(F)F)cc2F)C2CC2)c1` [Example 506, (4R)-N-((R)-cyclopropyl(2-fluoro-4-(trifluoromethyl)phenyl)methyl)-4-hydroxy-1-(3-(methylsulfonyl)benzoyl)-D-prolinamide]: the AC1.4 was determined as 2.23 µM.

The compound `CS(=O)(=O)c1cccc(C(=O)N2CCC[C@@H]2C(=O)N[C@@H](c2cc(F)c(C(F)(F)F)cc2F)[C@H]2C[C@@H](O)C2)c1` [Example 827, (R)-N-((R)-(2,5-difluoro-4-(trifluoromethyl)phenyl)((1s,3S)-3-hydroxycyclobutyl)methyl)-1-(3-(methylsulfonyl)benzoyl)pyrrolidine-2-carboxamide] had an AC1.4 of 0.15 µM.

The compound `O=C(NCc1ccc(C(F)(F)F)cc1)[C@H]1CCCN1C(=O)[C@H]1CCCN(S(=O)(=O)N2CCC2c2ccccc2)C1` (stereo partly drawn) [Example 339, 1-(((3S)-1-(((2R)-2-phenyl-1-azetidinyl)sulfonyl)-3-piperidinyl)carbonyl)-N-(4-(trifluoromethyl)benzyl)-D-prolinamide,1-(((3S)-1-(((2S)-2-phenyl-1-azetidinyl)sulfonyl)-3-piperidinyl)carbonyl)-N-(4-(trifluoromethyl)benzyl)-D-prolinamide] came in with an AC1.4 of 0.9511 µM.

As to `CS(=O)(=O)c1ccc(C(=O)N2C[C@@H](F)C[C@@H]2C(=O)N[C@@H](c2cc(F)c(Cl)cc2F)C2CC2)cn1` [Example 262, (4S)-N-((R)-(4-chloro-2,5-difluorophenyl)(cyclopropyl)methyl)-4-fluoro-1-((6-(methylsulfonyl)-3-pyridinyl)carbonyl)-D-prolinamide], the AC1.4 amounted to 0.6468 µM.

Turning to `N#CC1CN(S(=O)(=O)N2CCC[C@H](C(=O)N3[C@@H]4C[C@@H]4C[C@H]3C(=O)NCc3ccc(C(F)(F)F)cc3)C2)C1` [Example 801, (1R,3S,5R)-2-(((3S)-1-((3-cyano-1-azetidinyl)sulfonyl)-3-piperidinyl)carbonyl)-N-(4-(trifluoromethyl)benzyl)-2-azabicyclo[3.1.0]hexane-3-carboxamide], the AC1.4 came to 9.578 µM.

For `CS(=O)(=O)c1cncc(C(=O)N2[C@@H](C(=O)N[C@@H](c3cc(F)c(C(F)(F)F)cc3F)C3CC3)C[C@@H]3C[C@@H]32)c1` [Example 598, (1S,3R,5S)-N-((R)-cyclopropyl(2,5-difluoro-4-(trifluoromethyl)phenyl)methyl)-2-((5-(methylsulfonyl)-3-pyridinyl)carbonyl)-2-azabicyclo[3.1.0]hexane-3-carboxamide], the AC1.4 was found to be 3.0525 µM.

Compound `CN(Cc1ccc(C(F)(F)F)cc1)C(=O)[C@H]1CCCN1C(=O)c1cccc(S(=O)(=O)N2CC(C#N)C2)c1` [Example 75, 1-((3-((3-cyano-1-azetidinyl)sulfonyl)phenyl)carbonyl)-N-methyl-N-(4-(trifluoromethyl)benzyl)-D-prolinamide] came in with an AC1.4 of 0.1006 µM.

The record behind these values is patent US11780826B2 (Amgen Inc., priority 2017, dated 2023).
